In US20130119363A1, “FLUORINE-CONTAINING AROMATIC COMPOUND, ORGANIC SEMICONDUCTOR MATERIAL AND ORGANIC THIN FILM DEVICE” (ASAHI GLASS COMPANY, LIMITED, priority 2010, published 2013):

Assay: Evaluation of coating properties (orthodichlorobenzene solution, spin coating)
Type: physicochemical
Settings: one mass % orthodichlorobenzene solution, filtered through a PTFE filter, spin coated on silicon substrate; thin film formed
Protocol: One mass % of orthodichlorobenzene solution of the fluorine-containing aromatic compound (II) obtained by the synthesis example (1-1) was prepared. The obtained solution was filtered with a PTFE (polytetrafluoroethylene) filter of which thickness was 0.45 μm, and thereafter, it was coated on a silicon substrate by the spin coating. A coating condition was 1500 rotations per minute for 30 seconds. Next, the silicon substrate was placed on the hot plate, and heated at 150° C. for 90 seconds. After that, a film thickness of a compound (II) layer formed on the silicon substrate was measured by using an AFM (atomic force microscope), and it was 70 nm.
One mass % of orthodichlorobenzene solution of the fluorine-containing aromatic compound (12) obtained by the synthesis example (2-1) was prepared. The obtained solution was filtered with the PTFE (polytetrafluoroethylene) filter of which thickness was 0.45 μm, and thereafter, it was coated on the silicon substrate by the spin coating. The coating condition was 1500 rotations per minute for 30 seconds. Next, the silicon substrate was placed on the hot plate, and the heating process was performed at 120° C. for 120 seconds. After that, a film thickness of a compound (12) layer formed on the silicon substrate was measured by using the AFM (atomic force microscope), and it was 80 nm.
One mass % of orthodichlorobenzene solution of the fluorine-containing aromatic compound (13) obtained by the synthesis example (3-1) was prepared. The obtained solution was filtered with the PTFE (polytetrafluoroethylene) filter of which thickness was […], and thereafter, it was coated on the silicon substrate by the spin coating. The coating condition was 1500 rotations per minute for 30 seconds. Next, the silicon substrate was placed on the hot plate, and heated at 120° C. for 120 seconds. After that, a film thickness of a fluorine-containing aromatic compound (13) layer formed on the silicon substrate was measured by using the AFM (atomic force microscope), and it was 90 nm.

solubility for general solvents | Compound
good solubility | CCCCCCOc1c(F)c(F)c2c(F)c(C#Cc3ccc4cc(C#Cc5c(F)c(F)c6c(F)c(OCCCCCC)c(F)c(F)c6c5F)ccc4c3)c(F)c(F)c2c1F [Compound (11), 2,6-bis((6-hexyloxyhexafluoronaphthalene-2-yl)ethynyl)naphthalene]
good solubility | CCCCCCOc1c(F)c(F)c(C#Cc2ccc3cc(C#Cc4c(F)c(F)c(OCCCCCC)c(F)c4F)ccc3c2)c(F)c1F [Compound (12), 2,6-bis((4-hexyloxytetrafluorophenyl)ethynyl)naphthalene]
good solubility | CCCCCCOc1c(F)c(F)c(C#Cc2ccc(-c3ccc(-c4ccc(C#Cc5c(F)c(F)c(OCCCCCC)c(F)c5F)s4)s3)s2)c(F)c1F [Compound (13), 5,5″-bis((4-hexyloxytetrafluorophenyl)ethynyl)-2.2°: 5,2″-terthiophene]
